Common to all, as to format: in vitro ADME
In series [1] the test system is Plasma protein. Put plainly: plasma protein binding, Rapid Equilibrium Dialysis (RED), mouse. Conditions: 5 µM, 4h at 37°C, (*) low recovery for (If). As for the experimental part: (§1) Plasma from Seralab was employed in the assay and was carried out by employing Rapid Equilibrium Dialysis (RED) from Thermo Scientific.
(§2) The compounds were dissolved at 5 µM in plasma and added to the corresponding insert of the RED device. Dialysis buffer was added to the corresponding insert of the RED device. Plate was incubated for 4h at 37°C.
(§3) After the incubation period 50 µL aliquots of each chamber were transferred to empty vials. 50 µL of dialysis buffer were added to the plasma samples and 50 µL of plasma were added to the buffer samples. 300 µL of acetonitrile were added to all the samples and centrifuged at 4000 rpm 100 µL aliquots of the supernatants were transferred to a LC analysis plate. Samples were analyzed in a UPLC/MS/MS. Stationary phase: Acquity UPLC® BEHC18 1,7 µm (2.1 mm x 50 mm) (Waters). Gradient: A (H2O + 0.1% Formic acid); B (ACN + 0.1% Formic acid); Flow: 0.6mL/min Table 8: UPLC gradient / Protein binding assay
(§4) The chromatographic equipment employed was an ACQUITY UPLC / Xevo TQD System. Compound concentrations were calculated from the MS peak areas. Table 9: Plasma protein binding of the compounds of formula (I) in rat, mice, dogs and humans / (*) low recovery
(In equilibrium dialysis free small molecules cross a membrane that holds back macromolecules.)

Experiment in series [2]: as above
Conditions: 4h at 37°C, (*) low recovery for (If). The method, then: as §1, §2, §3, §4

For series [3], the system named is Plasma protein. Briefly: plasma protein binding, Rapid Equilibrium Dialysis (RED), human. The following applies: 5 µM, 4h at 37°C. The method, then:
as §1, §2, §3, §4

Experiment in series [4]: as above
Conditions: 4h at 37°C. The method, then: as §1, §2, §3, §4

Series [5] deals with Plasma protein. Put plainly: plasma protein binding, Rapid Equilibrium Dialysis (RED), rat. The following applies: 5 µM, 4h at 37°C. The method, then: as §1, §2, §3, §4
Experiment in series [6]: as above
The following applies: 4h at 37°C. The method, then: as §1, §2, §3, §4

Series [7] concerns Plasma protein. Put plainly: plasma protein binding, Rapid Equilibrium Dialysis (RED), dog. The following applies: 5 µM, 4h at 37°C. The method, then: as §1, §2, §3, §4
Experiment in series [8]: as above
The following applies: 4h at 37°C. The method, then: as §1, §2, §3, §4

Molecules are shown by their SMILES.

`O=C1NC(=O)C(c2ccccc2)(c2ccccc2)N1` [Phenytoin, reference compound]: the Unbound fraction with Plasma protein [1] is 17.94%; with Plasma protein [3], 17.77%; in the series on Plasma protein [5], 13.76%; in the series with Plasma protein [7] it was 18.94%. Also, the fraction unbound at 4 h, 5 µM in series [2] was 0.179; in series [4] it was 0.178; in series [6], 0.138; in series [8], 0.189.

Broadly, the fraction unbound is free concentration divided by total concentration. A lower fraction unbound goes with extensive binding.

Values taken from patent EP4420661B1, “SMALL MOLECULES TARGETING GLYCOPROTEIN VI AS ANTIPLATELET AGENTS FOR USE IN THE PREVENTION AND/OR TREATMENT OF THROMBOSIS AND ASSOCIATED PATHOLOGIES” (Universidade de Santiago de Compostela, priority 2023, dated 2024).
